In ChEMBL document CHEMBL5385876, “Discovery of unglycosylated indolocarbazoles as ROCK2 isoform-selective inhibitors for the treatment of breast cancer metastasis” (Eur J Med Chem, 2023):
Values belong to the molecule of their own block, whether it stands above or below them.

Target: Rho-associated protein kinase 2 (Homo sapiens, UniProt O75116)
Assay: Inhibition of N-terminal His10-StrepII tagged human ROCK2 catalytic domain (1 to 553 residues) expressed in Sf9 insect cells by HTRF assay

Chain of Rho-associated protein kinase 2 (O75116 whole entry, the tested form may be a part): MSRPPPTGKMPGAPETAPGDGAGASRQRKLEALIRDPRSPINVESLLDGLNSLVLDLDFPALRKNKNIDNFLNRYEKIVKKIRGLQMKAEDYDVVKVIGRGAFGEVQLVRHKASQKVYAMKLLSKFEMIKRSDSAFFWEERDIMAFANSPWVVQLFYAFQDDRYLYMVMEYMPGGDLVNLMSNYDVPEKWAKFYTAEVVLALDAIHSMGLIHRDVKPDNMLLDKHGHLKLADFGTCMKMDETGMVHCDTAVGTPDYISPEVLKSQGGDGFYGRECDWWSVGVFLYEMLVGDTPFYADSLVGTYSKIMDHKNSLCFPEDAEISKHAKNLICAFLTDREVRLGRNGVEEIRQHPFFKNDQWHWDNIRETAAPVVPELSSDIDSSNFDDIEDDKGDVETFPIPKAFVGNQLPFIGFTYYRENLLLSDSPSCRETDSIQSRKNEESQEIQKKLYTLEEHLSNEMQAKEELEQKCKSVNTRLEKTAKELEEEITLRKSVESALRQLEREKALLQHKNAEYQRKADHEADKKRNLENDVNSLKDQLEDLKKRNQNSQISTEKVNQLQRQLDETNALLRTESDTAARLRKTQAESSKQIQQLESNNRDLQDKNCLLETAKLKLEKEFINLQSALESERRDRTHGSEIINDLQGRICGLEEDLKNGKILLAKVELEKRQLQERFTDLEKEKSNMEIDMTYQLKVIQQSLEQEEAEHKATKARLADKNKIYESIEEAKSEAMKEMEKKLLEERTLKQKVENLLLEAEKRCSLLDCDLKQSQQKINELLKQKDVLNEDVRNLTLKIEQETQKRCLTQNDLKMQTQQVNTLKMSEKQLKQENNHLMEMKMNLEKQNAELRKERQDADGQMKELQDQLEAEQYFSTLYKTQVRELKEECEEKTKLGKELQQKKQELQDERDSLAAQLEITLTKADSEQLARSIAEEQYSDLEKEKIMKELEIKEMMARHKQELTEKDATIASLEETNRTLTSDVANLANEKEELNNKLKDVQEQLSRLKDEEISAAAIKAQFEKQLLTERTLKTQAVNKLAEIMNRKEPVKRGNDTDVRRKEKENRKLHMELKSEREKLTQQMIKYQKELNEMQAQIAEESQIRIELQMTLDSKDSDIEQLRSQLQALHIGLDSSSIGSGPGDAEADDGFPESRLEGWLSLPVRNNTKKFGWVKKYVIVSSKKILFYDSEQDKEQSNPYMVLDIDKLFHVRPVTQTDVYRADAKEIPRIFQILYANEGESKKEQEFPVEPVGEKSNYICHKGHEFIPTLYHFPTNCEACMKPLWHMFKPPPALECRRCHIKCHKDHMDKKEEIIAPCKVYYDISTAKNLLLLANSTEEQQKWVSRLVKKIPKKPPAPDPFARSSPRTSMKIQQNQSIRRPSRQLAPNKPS

SMILES: COC(=O)[C@@]1(O)C[C@H]2O[C@]1(C)n1c3ccccc3c3c4c(c5c6ccccc6n2c5c31)C(=O)NC4 [K-252A]
- IC50: > 500 nM

SMILES: CO[C@@H]1[C@@H](O)[C@@H](O)[C@H]2O[C@]1(C)n1c3ccccc3c3c4c(c5c6ccccc6n2c5c31)C(=O)N[C@H]4O
- IC50: > 500 nM

SMILES: COC(=O)[C@]1(O)C[C@H]2O[C@]1(C)n1c3ccccc3c3c4c(c5c6ccccc6n2c5c31)C(=O)NC4
- IC50: > 500 nM

SMILES: CC(C)(C)c1ccc2[nH]c3c4[nH]c5ccccc5c4c4c(c3c2c1)CNC4=O
- IC50: > 500 nM

SMILES: O=C1NCc2c1c1c3ccccc3[nH]c1c1[nH]c3c(O)cccc3c21
- IC50: > 500 nM

SMILES: COc1ccc2[nH]c3c4[nH]c5ccc(OC)cc5c4c4c(c3c2c1)CNC4=O
- IC50: > 500 nM

SMILES: COC(=O)c1cccc2c1NC1(C[C@H]3O[C@]1(C)n1c4ccccc4c4c5c(c6c7ccccc7n3c6c41)C(=O)NC5)C(=O)O2 (some centres not stated)
- IC50: > 500 nM

SMILES: O=C1NCc2c1c1c3ccc(O)cc3[nH]c1c1[nH]c3ccccc3c21
- IC50: 23 nM

SMILES: O=C1NCc2c1c1c3cccc(O)c3[nH]c1c1[nH]c3ccccc3c21
- IC50: 260 nM

SMILES: O=C1NCc2c1c1c3cc(O)ccc3[nH]c1c1[nH]c3ccc(O)cc3c21
- IC50: 3 nM

SMILES: COc1ccc2[nH]c3c4[nH]c5ccc(OC)cc5c4c4c(c3c2c1)C(=O)NC4=O [GW296115X]
- IC50: > 500 nM

SMILES: O=C1NCc2c1c1c3ccccc3[nH]c1c1[nH]c3ccccc3c21 [STAUROSPORINONE]
- IC50: > 500 nM

SMILES: Cc1ccc2[nH]c3c4[nH]c5ccccc5c4c4c(c3c2c1)CNC4=O
- IC50: > 500 nM

SMILES: CO[C@@H]1C(=O)C[C@H]2O[C@]1(C)n1c3ccccc3c3c4c(c5c6ccccc6n2c5c31)C(=O)NC4
- IC50: > 500 nM

SMILES: CO[C@@H]1[C@H](N(C)C(N)=O)C[C@H]2O[C@]1(C)n1c3ccccc3c3c4c(c5c6ccccc6n2c5c31)C(=O)NC4
- IC50: 360 nM

SMILES: CO[C@@H]1[C@@H](O)[C@@H](O)[C@H]2O[C@]1(C)n1c3ccccc3c3c4c(c5c6ccccc6n2c5c31)C(=O)N[C@H]4OC
- IC50: > 500 nM

SMILES: CO[C@H]1[C@@H](N2CC[C@@H](O)C2=O)C[C@H]2O[C@@]1(C)n1c3ccccc3c3c4c(c5c6ccccc6n2c5c31)C(=O)NC4 (racemic)
- IC50: 260 nM

SMILES: COc1ccc2[nH]c3c4[nH]c5ccccc5c4c4c(c3c2c1)C(=O)NC4
- IC50: > 500 nM

SMILES: CNC(=O)C[C@H]1O[C@@](C)(C(=O)OC)n2c3ccccc3c3c4c(c5c6ccccc6n1c5c32)C(=O)NC4
- IC50: 2720 nM

SMILES: CN[C@]1(C(=O)OC)C[C@H]2O[C@]1(C)n1c3ccccc3c3c4c(c5c6ccccc6n2c5c31)C(=O)NC4
- IC50: > 500 nM

SMILES: CO[C@@H]1[C@H](N(C)C=O)C[C@H]2O[C@]1(C)n1c3ccccc3c3c4c(c5c6ccccc6n2c5c31)C(=O)NC4
- IC50: 140 nM

SMILES: CN[C@@H]1C[C@H]2O[C@@](C)([C@@H]1OC)n1c3ccccc3c3c4c(c5c6ccccc6n2c5c31)C(=O)NC4=O (stereo in doubt; 14)
- IC50: 310 nM

SMILES: Cc1ccc2[nH]c3c4[nH]c5ccccc5c4c4c(c3c2c1)C(=O)NC4
- IC50: 550 nM

SMILES: COc1ccc2[nH]c3c4[nH]c5ccc(O)cc5c4c4c(c3c2c1)C(=O)NC4=O
- IC50: 110 nM

SMILES: COC1NC(=O)c2c1c1c3ccccc3[nH]c1c1[nH]c3ccccc3c21 (configuration not stated)
- IC50: > 500 nM

SMILES: COC1NC(=O)c2c1c1c3ccccc3[nH]c1c1[nH]c3ccc(O)cc3c21 (configuration not stated)
- IC50: 320 nM

SMILES: O=C1NCc2c1c1c3ccccc3[nH]c1c1[nH]c3cc(O)ccc3c21
- IC50: 200 nM

SMILES: COC(=O)[C@H]1C[C@H]2O[C@]1(C)n1c3ccccc3c3c4c(c5c6ccccc6n2c5c31)C(=O)NC4
- IC50: 370 nM

SMILES: COc1ccc2[nH]c3c4[nH]c5ccc(O)cc5c4c4c(c3c2c1)CNC4=O
- IC50: 120 nM

SMILES: CO[C@@H]1/C(=N/O)C[C@H]2O[C@]1(C)n1c3ccccc3c3c4c(c5c6ccccc6n2c5c31)C(=O)NC4
- IC50: > 500 nM

SMILES: CN[C@@H]1C[C@H]2O[C@@](C)([C@@H]1OC)n1c3ccccc3c3c4c(c5c6ccccc6n2c5c31)C(=O)NC4=O (stereo in doubt; 15)
- IC50: 20 nM

SMILES: C[C@]12O[C@H](C[C@]1(O)C(=O)O)n1c3ccccc3c3c4c(c5c6ccccc6n2c5c31)CNC4=O
- IC50: > 500 nM

SMILES: CO[C@@H]1[C@@H](O)[C@@H](O)[C@H]2O[C@]1(C)n1c3ccccc3c3c4c(c5c6ccccc6n2c5c31)C(=O)N[C@@H]4O
- IC50: > 500 nM

SMILES: CO[C@H]1NC(=O)c2c1c1c3ccccc3n3c1c1c2c2ccccc2n1[C@@H]1O[C@@]3(C)[C@H](OC)[C@@H](O)[C@H]1O
- IC50: > 500 nM

SMILES: CC(C)(C)c1ccc2[nH]c3c4[nH]c5ccccc5c4c4c(c3c2c1)C(=O)NC4
- IC50: > 500 nM

SMILES: COC1=C(C)O[C@@H]2C[C@@]1(OC)n1c3ccccc3c3c4c(c5c6ccccc6n2c5c31)C(=O)NC4
- IC50: > 500 nM

SMILES: CO[C@@H]1[C@H](NC(=O)C(=O)c2c[nH]c3ccccc23)C[C@H]2O[C@]1(C)n1c3ccccc3c3c4c(c5c6ccccc6n2c5c31)C(=O)NC4
- IC50: 4780 nM

SMILES: COc1ccc2[nH]c3c4[nH]c5ccc(O)cc5c4c4c(c3c2c1)C(=O)NC4
- IC50: 460 nM

SMILES: O=C1NC(=O)c2c1c1c3ccccc3[nH]c1c1[nH]c3ccccc3c21 [STAUROSPORINE AGLYCON]
- IC50: > 500 nM

SMILES: COc1ccc2c(c1)c1c3c(c4c5ccccc5n(C)c4c1n2C)C(=O)N(C)C3=O
- IC50: > 500 nM

SMILES: O=C1NC(=O)c2c1c1c3cc(O)ccc3[nH]c1c1[nH]c3ccc(O)cc3c21
- IC50: 7 nM

Second part, the molecule after the results:

- IC50: > 500 nM
SMILES: CO[C@H]1NC(=O)c2c1c1c3ccccc3[nH]c1c1c2c2ccccc2n1[C@@H]1O[C@@H](C)[C@H](O)[C@@H](O)[C@H]1O

- IC50: 35 nM
SMILES: C[C@]12O[C@H](C[C@@H](N)[C@H]1O)n1c3ccccc3c3c4c(c5c6ccccc6n2c5c31)CNC4=O

- IC50: > 500 nM
SMILES: O=C1NC(=O)c2c1c1c3ccccc3[nH]c1c1[nH]c3c(O)cccc3c21

- IC50: 470 nM
SMILES: C[C@@H]1O[C@@H](n2c3ccccc3c3c4c(c5c6ccccc6[nH]c5c32)CNC4=O)[C@H](O)[C@H](O)[C@H]1O

- IC50: 120 nM
SMILES: C[C@H]1O[C@@H]2C[C@](O)([C@H]1O)n1c3ccccc3c3c4c(c5c6cc(O)ccc6n2c5c31)C(=O)NC4

- IC50: > 500 nM
SMILES: CC(C)(C)c1ccc2[nH]c3c4[nH]c5ccccc5c4c4c(c3c2c1)C(=O)NC4=O

- IC50: 100 nM
SMILES: COc1ccc2[nH]c3c4[nH]c5ccccc5c4c4c(c3c2c1)C(=O)NC4=O

- IC50: 550 nM
SMILES: Cn1c2ccccc2c2c3c(c4c5ccccc5[nH]c4c21)C(=O)NC3

- IC50: 76 nM
SMILES: C[C@@H]1O[C@@H](n2c3ccc(O)cc3c3c4c(c5c6ccccc6[nH]c5c32)CNC4=O)[C@H](O)[C@H](O)[C@H]1O

- IC50: 2070 nM
SMILES: CO[C@@H]1[C@H](N(C)C(C)=O)C[C@H]2O[C@]1(C)n1c3ccccc3c3c4c(c5c6ccccc6n2c5c31)C(=O)NC4=O

- IC50: 530 nM
SMILES: O=C1NC(=O)c2c1c1c3ccccc3[nH]c1c1[nH]c3cc(O)ccc3c21

- IC50: 210 nM
SMILES: CC(=O)N[C@H]1C[C@H](n2c3ccccc3c3c4c(c5c6ccccc6[nH]c5c32)CNC4=O)O[C@@H](C)[C@@H]1O

- IC50: > 500 nM
SMILES: COc1cccc2[nH]c3c4[nH]c5ccccc5c4c4c(c3c12)C(=O)NC4=O

- IC50: 720 nM
SMILES: CO[C@@H]1[C@@H](O)C[C@H]2O[C@]1(C)n1c3ccccc3c3c4c(c5c6ccccc6n2c5c31)C(=O)NC4

- IC50: 2700 nM
SMILES: CC(=O)N[C@@H]1C[C@H](n2c3ccccc3c3c4c(c5c6ccccc6[nH]c5c32)CNC4=O)O[C@@H](C)[C@@H]1O

- IC50: 570 nM
SMILES: CO[C@@H]1[C@H](N(C)C(C)=O)C[C@H]2O[C@]1(C)n1c3ccccc3c3c4c(c5c6ccccc6n2c5c31)C(=O)NC4

- IC50: > 500 nM
SMILES: CO[C@@H]1[C@@H](O)[C@@H](O)[C@H]2O[C@]1(C)n1c3ccccc3c3c4c(c5c6ccccc6n2c5c31)C(=O)NC4=O

- IC50: 8220 nM
SMILES: CC1NC(=O)c2c1c1c3ccccc3[nH]c1c1[nH]c3ccccc3c21 (configuration not stated)

- IC50: > 500 nM
SMILES: CO[C@@H]1[C@H](O)[C@H](O)[C@H](C)O[C@H]1n1c2ccc(O)cc2c2c3c(c4c5ccccc5[nH]c4c21)CNC3=O

- IC50: > 500 nM
SMILES: C[C@@H]1O[C@@H](n2c3ccccc3c3c4c(c5c6ccccc6[nH]c5c32)C(=O)NC4=O)[C@H](O)[C@H](O)[C@H]1O

- IC50: 340 nM
SMILES: CO[C@@H]1[C@H](NC(C)=O)C[C@H]2O[C@]1(C)n1c3ccccc3c3c4c(c5c6ccccc6n2c5c31)C(=O)NC4

- IC50: 360 nM
SMILES: CO[C@@H]1[C@H](N)C[C@H]2O[C@]1(C)n1c3ccccc3c3c4c(c5c6ccccc6n2c5c31)C(=O)NC4=O

- IC50: 360 nM
SMILES: C[C@]12O[C@H](C[C@@H](N)[C@H]1O)n1c3ccccc3c3c4c(c5c6ccccc6n2c5c31)C(=O)NC4=O

- IC50: 2120 nM
SMILES: COc1cc(/C=C(/C(N)=O)n2c3ccccc3c3c4c(c5c6ccccc6[nH]c5c32)CNC4=O)ccc1O

- IC50: 2880 nM
SMILES: C[C@]12O[C@H](C[C@@H](O)[C@H]1O)n1c3ccccc3c3c4c(c5c6ccccc6n2c5c31)CNC4=O

- IC50: 620 nM
SMILES: COc1ccc2c(c1)[nH]c1c3[nH]c4ccccc4c3c3c(c21)C(=O)NC3=O

- IC50: 670 nM
SMILES: O=C1NC(=O)c2c1c1c3ccccc3[nH]c1c1[nH]c3ccc(O)cc3c21

- IC50: 690 nM
SMILES: CO[C@@H]1[C@@H](O)[C@@H](O)[C@H]2O[C@]1(C)n1c3ccccc3c3c4c(c5c6ccccc6n2c5c31)C(=O)NC4

- IC50: 2240 nM
SMILES: CC(=O)N[C@@H]1C[C@H](n2c3ccccc3c3c4c(c5c6ccccc6[nH]c5c32)C(=O)NC4=O)O[C@@H](C)[C@@H]1O

- IC50: 8000 nM
SMILES: CO[C@@H]1[C@H](O)C[C@H]2O[C@]1(C)n1c3ccccc3c3c4c(c5c6ccccc6n2c5c31)C(=O)NC4

- IC50: 250 nM
SMILES: C[C@@H]1O[C@@H](n2c3ccccc3c3c4c(c5c6ccccc6[nH]c5c32)C(=O)NC4=O)C[C@@H](NC=O)[C@H]1O

- IC50: 140 nM
SMILES: C[C@@H]1O[C@@H](n2c3ccccc3c3c4c(c5c6ccccc6[nH]c5c32)CNC4=O)C[C@@H](N)[C@H]1OC(O)C1CO1 (some centres not stated)

- IC50: > 500 nM
SMILES: C[C@@H]1O[C@@H](n2c3ccccc3c3c4c(c5c6ccccc6[nH]c5c32)[C@H](O)NC4=O)[C@H](O)[C@H](O)[C@H]1O

- IC50: > 500 nM
SMILES: C[C@H]1O[C@@H]2C[C@](O)([C@@H]1O)n1c3ccccc3c3c4c(c5c6ccccc6n2c5c31)C(=O)NC4

- IC50: > 500 nM
SMILES: CO[C@@H]1[C@H](NC=O)C[C@H]2O[C@]1(C)n1c3ccccc3c3c4c(c5c6ccccc6n2c5c31)C(=O)NC4

- IC50: > 500 nM
SMILES: CO[C@H]1C(=O)C[C@H]2O[C@]1(C)n1c3ccccc3c3c4c(c5c6ccccc6n2c5c31)C(=O)NC4
